The text below walks through data of ChEMBL document CHEMBL6096658, “Discovery of Potent, Highly Selective, and Efficacious SMARCA2 Degraders” (J Med Chem, 2025).

The target of experiment [1] is SWI/SNF-related matrix-associated actin-dependent regulator of chromatin subfamily A member 4 (Homo sapiens, UniProt P51532). As to the kind of experiment: Binding affinity to SMARCA4 (unknown origin) incubated for 30 mins by HTRF assay. (In general: Time-resolved FRET reads energy transfer from a long-lived donor to a nearby acceptor.)
Sequence of SWI/SNF-related matrix-associated actin-dependent regulator of chromatin subfamily A member 4 (P51532 whole entry): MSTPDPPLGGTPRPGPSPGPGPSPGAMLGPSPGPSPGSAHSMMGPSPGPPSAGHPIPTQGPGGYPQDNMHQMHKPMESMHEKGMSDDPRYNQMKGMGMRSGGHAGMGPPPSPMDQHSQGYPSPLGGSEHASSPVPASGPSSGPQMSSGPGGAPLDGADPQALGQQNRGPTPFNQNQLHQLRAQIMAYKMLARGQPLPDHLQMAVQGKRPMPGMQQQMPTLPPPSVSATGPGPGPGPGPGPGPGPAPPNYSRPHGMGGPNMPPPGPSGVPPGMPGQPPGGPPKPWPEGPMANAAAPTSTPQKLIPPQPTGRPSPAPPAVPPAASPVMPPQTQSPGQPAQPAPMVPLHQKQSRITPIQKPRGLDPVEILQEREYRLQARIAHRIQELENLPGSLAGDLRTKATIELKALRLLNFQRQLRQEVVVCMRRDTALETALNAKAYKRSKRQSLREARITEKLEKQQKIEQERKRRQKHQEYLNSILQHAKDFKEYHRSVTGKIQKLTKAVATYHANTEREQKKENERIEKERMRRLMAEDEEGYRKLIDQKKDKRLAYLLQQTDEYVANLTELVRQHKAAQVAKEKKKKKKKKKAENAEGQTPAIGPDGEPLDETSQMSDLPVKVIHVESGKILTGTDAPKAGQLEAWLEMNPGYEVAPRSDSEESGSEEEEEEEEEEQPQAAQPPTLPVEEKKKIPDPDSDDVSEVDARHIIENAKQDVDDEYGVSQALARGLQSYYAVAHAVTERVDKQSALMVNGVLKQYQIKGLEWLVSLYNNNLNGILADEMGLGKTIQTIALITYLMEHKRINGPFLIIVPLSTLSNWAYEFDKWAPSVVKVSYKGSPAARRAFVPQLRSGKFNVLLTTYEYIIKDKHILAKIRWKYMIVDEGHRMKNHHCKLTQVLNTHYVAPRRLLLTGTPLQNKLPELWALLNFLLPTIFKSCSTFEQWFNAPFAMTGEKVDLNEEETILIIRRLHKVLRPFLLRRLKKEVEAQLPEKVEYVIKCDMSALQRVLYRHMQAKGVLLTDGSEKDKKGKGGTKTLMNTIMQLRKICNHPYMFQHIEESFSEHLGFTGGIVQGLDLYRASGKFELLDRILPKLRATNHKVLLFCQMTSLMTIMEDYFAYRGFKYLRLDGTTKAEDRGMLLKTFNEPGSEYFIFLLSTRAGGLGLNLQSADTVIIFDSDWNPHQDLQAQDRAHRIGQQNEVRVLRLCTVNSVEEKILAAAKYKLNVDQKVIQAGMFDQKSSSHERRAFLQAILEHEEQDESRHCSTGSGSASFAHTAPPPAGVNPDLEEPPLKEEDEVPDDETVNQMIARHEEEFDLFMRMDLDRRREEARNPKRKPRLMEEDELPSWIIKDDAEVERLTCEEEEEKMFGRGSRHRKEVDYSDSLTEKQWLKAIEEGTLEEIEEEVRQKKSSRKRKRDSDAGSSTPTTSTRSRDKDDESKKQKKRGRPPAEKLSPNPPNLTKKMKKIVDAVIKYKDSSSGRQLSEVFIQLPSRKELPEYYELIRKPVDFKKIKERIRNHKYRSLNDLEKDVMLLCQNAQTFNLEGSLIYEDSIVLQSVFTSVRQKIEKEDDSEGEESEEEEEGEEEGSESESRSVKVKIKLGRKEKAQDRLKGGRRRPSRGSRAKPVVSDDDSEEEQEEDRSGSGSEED
The target of experiment [2] is SWI/SNF-related matrix-associated actin-dependent regulator of chromatin subfamily A member 2 (Homo sapiens, UniProt P51531). The experiment in a line: Binding affinity to SMARCA2 (unknown origin) incubated for 30 mins by HTRF assay.
Sequence of SWI/SNF-related matrix-associated actin-dependent regulator of chromatin subfamily A member 2 (P51531 whole entry): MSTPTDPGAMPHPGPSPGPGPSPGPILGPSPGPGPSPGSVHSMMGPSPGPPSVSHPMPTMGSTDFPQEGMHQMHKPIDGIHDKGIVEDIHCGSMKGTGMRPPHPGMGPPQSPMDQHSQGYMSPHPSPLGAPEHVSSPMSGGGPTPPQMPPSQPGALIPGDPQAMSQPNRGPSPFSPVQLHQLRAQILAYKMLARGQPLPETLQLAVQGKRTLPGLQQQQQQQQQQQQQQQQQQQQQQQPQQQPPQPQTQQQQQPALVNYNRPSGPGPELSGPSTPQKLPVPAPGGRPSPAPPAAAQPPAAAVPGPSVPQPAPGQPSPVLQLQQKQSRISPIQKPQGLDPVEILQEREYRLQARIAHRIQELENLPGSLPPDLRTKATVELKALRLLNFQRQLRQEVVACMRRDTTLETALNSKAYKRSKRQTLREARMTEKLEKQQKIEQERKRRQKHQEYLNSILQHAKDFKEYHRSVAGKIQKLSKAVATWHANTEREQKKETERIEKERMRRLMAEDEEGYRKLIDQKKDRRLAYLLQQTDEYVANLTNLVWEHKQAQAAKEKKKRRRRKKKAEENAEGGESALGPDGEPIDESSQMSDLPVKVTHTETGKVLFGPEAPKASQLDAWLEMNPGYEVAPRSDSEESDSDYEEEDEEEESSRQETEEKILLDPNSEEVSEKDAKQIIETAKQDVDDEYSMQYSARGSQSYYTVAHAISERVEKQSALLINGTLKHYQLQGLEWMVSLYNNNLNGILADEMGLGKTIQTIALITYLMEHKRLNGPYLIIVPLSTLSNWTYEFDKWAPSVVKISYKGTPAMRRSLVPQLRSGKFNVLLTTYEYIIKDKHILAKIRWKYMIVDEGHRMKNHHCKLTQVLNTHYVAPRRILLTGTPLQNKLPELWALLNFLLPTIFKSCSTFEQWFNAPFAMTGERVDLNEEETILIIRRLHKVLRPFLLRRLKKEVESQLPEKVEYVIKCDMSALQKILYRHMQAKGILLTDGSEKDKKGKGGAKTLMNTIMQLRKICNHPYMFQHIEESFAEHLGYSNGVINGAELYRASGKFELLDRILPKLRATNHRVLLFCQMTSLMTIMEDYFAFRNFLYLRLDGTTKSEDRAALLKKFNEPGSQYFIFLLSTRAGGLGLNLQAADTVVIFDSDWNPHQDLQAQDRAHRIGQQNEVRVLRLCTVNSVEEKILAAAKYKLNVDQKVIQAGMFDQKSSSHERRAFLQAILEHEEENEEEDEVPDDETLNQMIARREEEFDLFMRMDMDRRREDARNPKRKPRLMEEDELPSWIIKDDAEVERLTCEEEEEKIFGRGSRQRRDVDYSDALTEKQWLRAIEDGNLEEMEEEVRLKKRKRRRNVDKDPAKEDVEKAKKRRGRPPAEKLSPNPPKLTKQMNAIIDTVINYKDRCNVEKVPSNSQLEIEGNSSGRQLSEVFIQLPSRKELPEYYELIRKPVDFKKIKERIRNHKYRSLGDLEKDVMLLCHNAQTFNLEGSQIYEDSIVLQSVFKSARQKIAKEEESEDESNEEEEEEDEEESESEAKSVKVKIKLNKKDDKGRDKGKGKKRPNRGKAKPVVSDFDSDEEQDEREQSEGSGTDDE
The target of experiment [3] is T1, von Hippel-Lindau disease tumor suppressor/SWI/SNF-related matrix-associated actin-dependent regulator of chromatin subfamily A member 2 (Homo sapiens, UniProt P51531+P40337). The experiment in a line: PROTAC activity at VHL/SMARCA2 in human HT-1080 cells assessed as induction of SMARCA2 degradation by measuring maximum efficacy incubated for 6 hrs by Nano-Glo HiBiT Lytic Detection Assay relative to control. It is filed as cell-based. On the technique in general: HiBiT is a short tag that completes a luciferase, so light tracks the accessible tagged protein.
Target sequence in this assay (P40337 whole entry, looked up): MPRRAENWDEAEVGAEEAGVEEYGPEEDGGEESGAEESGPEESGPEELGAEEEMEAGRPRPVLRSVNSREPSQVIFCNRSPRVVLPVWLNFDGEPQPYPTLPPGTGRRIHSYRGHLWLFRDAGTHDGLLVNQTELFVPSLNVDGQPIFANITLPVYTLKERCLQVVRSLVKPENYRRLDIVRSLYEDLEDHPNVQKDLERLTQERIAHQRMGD
Target sequence in this assay (P51531 whole entry, looked up): as the sequence (P51531 whole entry) above

Experiment [4] has as its target T2, von Hippel-Lindau disease tumor suppressor/SWI/SNF-related matrix-associated actin-dependent regulator of chromatin subfamily A member 4 (Homo sapiens, UniProt P51532+P40337). The experiment in a line: PROTAC activity at VHL/SMARCA4 in human HT-1080 cells assessed as induction of SMARCA4 degradation incubated for 24 hrs by Nano-Glo HiBiT Lytic Detection Assay. Format: cell-based.
Target sequence in this assay (P51532 whole entry): as the sequence (P51532 whole entry) above
Target sequence in this assay (P40337 whole entry): as the sequence (P40337 whole entry, looked up) above

The target of experiment [5] is von Hippel-Lindau disease tumor suppressor (Homo sapiens, UniProt P40337). The experiment in a line: Binding affinity to VHL (unknown origin) incubated for 30 mins by HTRF assay.
Sequence of von Hippel-Lindau disease tumor suppressor (P40337 whole entry): as the sequence (P40337 whole entry, looked up) above
Experiment [6] in a line: Selectivity ratio of DC50 for PROTAC activity at VHL/SMARCA4 in human HT-1080 cells (unknown origin) to DC50 for VHL/SMARCA2 in human HT-1080 cells (unknown origin). It is filed as cell-based.
Experiment [7] has as its target T1, von Hippel-Lindau disease tumor suppressor/SWI/SNF-related matrix-associated actin-dependent regulator of chromatin subfamily A member 2. As to the kind of experiment: PROTAC activity at VHL/SMARCA2 in human HT-1080 cells assessed as induction of SMARCA2 degradation incubated for 24 hrs by Nano-Glo HiBiT Lytic Detection Assay. Format: cell-based.
Target sequence in this assay (P51531 whole entry): as the sequence (P51531 whole entry) above
Target sequence in this assay (P40337 whole entry): as the sequence (P40337 whole entry, looked up) above
The target of experiment [8] is T2, von Hippel-Lindau disease tumor suppressor/SWI/SNF-related matrix-associated actin-dependent regulator of chromatin subfamily A member 4. The experiment in a line: PROTAC activity at VHL/SMARCA4 in human HT-1080 cells assessed as induction of SMARCA4 degradation by measuring maximum efficacy incubated for 6 hrs by Nano-Glo HiBiT Lytic Detection Assay relative to control. It is filed as cell-based.
Target sequence in this assay (P40337 whole entry, looked up): as above
Target sequence in this assay (P51532 whole entry, looked up): as the sequence (P51532 whole entry) above

For the next experiment, the system named is NCI-H838. The experiment in a line: Antiproliferative activity against human NCI-H838 cells assessed as cell growth inhibition incubated for 6 days by Cell Titer Glo assay. Conditions: NCI-H838, 144 h, time 6 day; call rule not given here. It is filed as functional. In general terms: In ATP-based viability assays light output follows the ATP content of the culture.
The test system of another experiment is Calu-6. The experiment in a line: Antiproliferative activity against human Calu-6 cells assessed as cell growth inhibition incubated for 6 days by Cell Titer Glo assay. Format: functional. Conditions: Calu-6, 144 h, time 6 day.
In experiment [9] the target is T1, von Hippel-Lindau disease tumor suppressor/SWI/SNF-related matrix-associated actin-dependent regulator of chromatin subfamily A member 2. As to the kind of experiment: Binding affinity to flag-tagged SMARCA2/VHL (unknown origin) assessed as ternary complex formation by measuring HTRF signal incubated for 120 mins by Envision reader analysis. It is filed as protein assay.
Target sequence in this assay (P40337 whole entry, looked up): as the sequence (P40337 whole entry, looked up) above
Target sequence in this assay (P51531 whole entry, looked up): as the sequence (P51531 whole entry) above

One may read the IC50 as the midpoint of a concentration-inhibition curve. Regarding `CC1(C)c2c(C3CCNCC3)cccc2-n2c1nc(=O)c1c(Cl)cccc12`, the IC50 amounted to 0.17 µM in [1] and 0.068 µM in [2].
For orientation: Emax means the greatest response seen or fitted, relative to the assay's reference. Broadly, the DC50 is the concentration at which degradation of the target reaches its halfway point. With `Cc1ncsc1-c1ccc([C@H](C)NC(=O)[C@@H]2C[C@@H](O)CN2C(=O)[C@@H](c2cc(OC3CCC(N4CCC(c5ccc6c(c5)C(C)(C)c5nc(=O)c7c(Cl)cccc7n5-6)CC4)CC3)no2)C(C)C)cc1` (some centres undefined), the maximal response (Emax) came out at 99% in [3] and 97% in [8]. In addition, the 50% degradation concentration (DC50) was determined as 0.0012 µM in experiment [4] and 0.00016 µM in experiment [7]. The IC50 in experiment [5] came to 0.0093 µM; in experiment [1], 0.043 µM; in experiment [2], 0.047 µM. Further, the Ratio in experiment [6] was 7.5.
For `CC1(C)c2ccc(C3CCNCC3)cc2-n2c1nc(=O)c1c(Cl)cccc12`, the 50% inhibitory concentration (IC50) in experiment [1] came to 0.038 µM; in experiment [2], 0.015 µM.
Consider `Cc1ncsc1-c1ccc([C@H](C)NC(=O)[C@@H]2C[C@@H](O)CN2C(=O)[C@@H](c2cc(N3CCC(CN4CCC(c5ccc6c(c5)C(C)(C)c5nc(=O)c7c(Cl)cccc7n5-6)CC4)CC3)no2)C(C)C)cc1`, for which the maximum response (Emax) in [3] was 98%. For the same molecule, the DC50 is 0.0039 µM in [4] and 0.00061 µM in [7]. The results for the IC50 in experiment [5], in experiment [1] and in experiment [2] were 0.0064 µM, 0.027 µM and 0.016 µM, respectively.
`CC1(C)c2cc(C3CCNCC3)ccc2-n2c1nc(=O)c1c(Br)cccc12`: the half-inhibitory concentration (IC50) stood at 0.0055 µM in experiment [1] and 0.0028 µM in [2].
The term GI50 denotes the concentration giving 50% growth inhibition. As to `Cc1ncsc1-c1ccc([C@H](C)NC(=O)[C@@H]2C[C@@H](O)CN2C(=O)[C@@H](NC(=O)[C@H]2CC[C@H](CN3CCC(c4ccc5c(c4)-n4c(nc(=O)c6c(Br)cccc64)C5(C)C)CC3)CC2)C(C)(C)C)cc1`, the Emax stood at 93% in experiment [3] and 34% in experiment [8]. For the same molecule, the GI50 was 0.04 µM in the experiment with NCI-H838 and greater than 1 µM with Calu-6. Further, the figures for the DC50 in experiment [4] and in [7] were greater than 1 µM and 0.0064 µM, respectively. The IC50 in [5] is 0.28 µM. Further, the Ratio in experiment [6] was greater than 100.
With `O=c1nc2n(c3cccc(Cl)c13)-c1ccc(C3CCNCC3)cc1C21CCCC1`, the IC50 in experiment [1] stood at 0.024 µM; in [2], 0.013 µM.
The corresponding values for `O=c1nc2n(c3cccc(Cl)c13)-c1cc(C3CCNCC3)ccc1C21CCCCC1` are 0.04 µM and 0.017 µM.
On to `Cc1ncsc1-c1ccc([C@H](C)NC(=O)[C@@H]2C[C@@H](O)CN2C(=O)[C@@H](NC(=O)[C@H]2CC[C@H](CN3CCC(c4ccc5c(c4)-n4c(nc(=O)c6c(Cl)cccc64)C5(C)C)CC3)CC2)C(C)(C)C)cc1`, for which the maximum response (Emax) in [3] came to 92%; in [8], 25%. In addition, the figures for the DC50 in experiment [4] and in [7] were greater than 1 µM and 0.01 µM, respectively. This molecule also gave an IC50 in [5] of 0.37 µM. The Ratio in experiment [6] is greater than 100.
With `Cc1ncsc1-c1ccc([C@H](C)NC(=O)[C@@H]2C[C@@H](O)CN2C(=O)[C@@H](c2cc(OCCN3CCC(c4ccc5c(c4)C(C)(C)c4nc(=O)c6c(Cl)cccc6n4-5)CC3)no2)C(C)C)cc1`, the Emax in experiment [3] amounted to 96%; in experiment [8] it was 80%. Besides, the DC50 in [4] was 0.031 µM; in experiment [7], 0.0021 µM. For the same molecule, the half-inhibitory concentration (IC50) in experiment [5] stood at 0.022 µM; in [1], 0.079 µM; in [2], 0.088 µM. Also, the Ratio in experiment [6] was determined as 15.
With `O=c1nc2n(c3cccc(Cl)c13)-c1ccc(C3CCNCC3)cc1C21CCCCCC1`, the half-maximal inhibitory concentration (IC50) was 0.15 µM in experiment [1] and 0.053 µM in experiment [2].
The corresponding values for `CC1(C)c2cc(C3CCNCC3)ccc2-n2c1nc(=O)c1c(Cl)cccc12` are 0.036 µM and 0.012 µM.
In the case of `Cc1ncsc1-c1ccc([C@H](C)NC(=O)[C@@H]2C[C@@H](O)CN2C(=O)[C@@H](c2cc(OCCCN3CCC(c4ccc5c(c4)C(C)(C)c4nc(=O)c6c(Cl)cccc6n4-5)CC3)no2)C(C)C)cc1`, the Emax in experiment [3] was found to be 98%; in experiment [8], 92%. For the same molecule, the DC50 in [4] came out at 0.026 µM; in experiment [7] it was 0.0014 µM. In addition, the IC50 in experiment [5] was determined as 0.017 µM; in experiment [1], 0.083 µM; in experiment [2] it was 0.06 µM. In [6], the Ratio came out at 18.
Consider `O=c1nc2n(c3cccc(Cl)c13)-c1ccc(C3CCNCC3)cc1C21CCCCC1`, for which the results for the IC50 in experiment [1] and in experiment [2] were 0.018 µM and 0.0088 µM, respectively.
Turning to `Cc1ncsc1-c1ccc([C@H](C)NC(=O)[C@@H]2C[C@@H](O)CN2C(=O)[C@@H](c2cc(OCCCCN3CCC(c4ccc5c(c4)C(C)(C)c4nc(=O)c6c(Cl)cccc6n4-5)CC3)no2)C(C)C)cc1`, the maximal response (Emax) in [3] came out at 98%; in [8], 93%. The DC50 in experiment [4] stood at 0.022 µM; in [7], 0.0019 µM. Further, the IC50 is 0.016 µM in experiment [5], 0.097 µM in [1] and 0.07 µM in experiment [2]. For the same molecule, the Ratio in experiment [6] was 12.
As to `Cc1ncsc1-c1ccc([C@H](C)NC(=O)[C@@H]2C[C@@H](O)CN2C(=O)[C@@H](c2cc(OCC3(CN4CCC(c5ccc6c(c5)C(C)(C)c5nc(=O)c7c(Cl)cccc7n5-6)CC4)CC3)no2)C(C)C)cc1`, the maximal effect (Emax) in [3] turned out to be 87%; in [8], 53%. Moreover, the half-maximal degradation concentration (DC50) in experiment [4] amounted to 0.28 µM; in experiment [7] it was 0.013 µM. Also, the IC50 in [5] was determined as 0.015 µM; in [1], 0.1 µM; in [2], 0.072 µM. The Ratio in experiment [6] came out at 22.
On to `O=c1nc2n(c3cccc(Br)c13)-c1ccc(C3CCNCC3)cc1C21CCCCC1`, for which the IC50 in experiment [1] was determined as 0.01 µM; in experiment [2] it was 0.0046 µM.
The corresponding values for `Cc1ncsc1-c1ccc([C@H](C)NC(=O)[C@@H]2C[C@@H](O)CN2C(=O)[C@@H](c2cc(CN3CCC(c4ccc5c(c4)C(C)(C)c4nc(=O)c6c(Cl)cccc6n4-5)CC3)no2)C(C)C)cc1` are 0.5 µM and 0.35 µM.
The corresponding values for `O=c1nc2n(c3cccc(Cl)c13)-c1ccc(C3CCNCC3)cc1C21CCNCC1` are 9.1 µM and 3.5 µM.
Consider `Cc1ncsc1-c1ccc([C@H](C)NC(=O)[C@@H]2C[C@@H](O)CN2C(=O)[C@@H](c2cc(OCC(C)CN3CCC(c4ccc5c(c4)-n4c(nc(=O)c6c(Cl)cccc64)C5(C)C)CC3)no2)C(C)C)cc1` (some centres undefined), for which the results for the maximal response (Emax) in [3] and in experiment [8] were 97% and 92%, respectively. For the same molecule, the DC50 in [4] amounted to 0.012 µM; in experiment [7] it was 0.0017 µM. Further, the IC50 in experiment [5] turned out to be 0.0062 µM; in experiment [1], 0.11 µM; in [2], 0.034 µM. Also, the Ratio in [6] is 7.
Regarding `Cc1ncsc1-c1ccc([C@H](C)NC(=O)[C@@H]2C[C@@H](O)CN2C(=O)[C@@H](c2cc(N3CCC(CN4CCC(c5cccc6c5C(C)(C)c5nc(=O)c7c(Cl)cccc7n5-6)CC4)CC3)no2)C(C)C)cc1`, the values for the maximal effect (Emax) in [3] and in [8] were 94% and 84%, respectively. The DC50 in experiment [4] worked out at 0.035 µM; in experiment [7] it was 0.0044 µM. The figures for the concentration for half-maximal inhibition (IC50) in [5], in experiment [1] and in experiment [2] were 0.015 µM, 0.083 µM and 0.15 µM, respectively. Moreover, in [6], the Ratio came to 8. For the same molecule, the Activity result in experiment [9] is recorded as “Active; Smarca2-Vhl Shows 30% Higher Auc Compared To Smarca4-Vhl Was Observed”.
